Experimental findings from US10947252B2, “Inhibitors of KEAP1-Nrf2 protein-protein interaction” (Janssen Pharmaceutica NV, priority 2018, dated 2021) are described below.

In assay [1] the target is Kelch domain of human KEAP1 (321-624 aa) (Homo sapiens (Human), UniProt Q14145). The assay can be described thus: KEAP1 KELCH ThermoFluor binding assay.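 Also: Ligand-induced melting temperature shift of E. coli-expressed KEAP1 Kelch protein, Kd estimated from concentration-response curves of ΔTm.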 To be noted: KEAP Kelch […], 1,8-ANS, pH 7.0, average of results obtained, read-out: Tf Kd. A general note: Differential scanning fluorimetry follows unfolding on heating by fluorescence.
Assay [2] relates to Glo-Response ARE-luc2P HEK293 cell line. Kind of assay: ARE luciferase reporter cell-based assay.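 Also: luciferase signal tracks Nrf2 activation of the ARE once compounds disrupt KEAP1-Nrf2 binding, read with One-Glo reagent, DMSO serving as low control.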 To be noted: Homo sapiens, HEK293, 24 h, average of results obtained. Background: In a reporter assay the amount or activity of a reporter protein is the signal.

The term Kd denotes the equilibrium constant for the complex coming apart. One may read the EC50 as the midpoint of the concentration-response curve. Read a high EC50 as weaker potency.

Where only a bound is given, the exact number is not on record here.

Sequence of Kelch domain of human KEAP1 (321-624 aa) (Q14145 321-624): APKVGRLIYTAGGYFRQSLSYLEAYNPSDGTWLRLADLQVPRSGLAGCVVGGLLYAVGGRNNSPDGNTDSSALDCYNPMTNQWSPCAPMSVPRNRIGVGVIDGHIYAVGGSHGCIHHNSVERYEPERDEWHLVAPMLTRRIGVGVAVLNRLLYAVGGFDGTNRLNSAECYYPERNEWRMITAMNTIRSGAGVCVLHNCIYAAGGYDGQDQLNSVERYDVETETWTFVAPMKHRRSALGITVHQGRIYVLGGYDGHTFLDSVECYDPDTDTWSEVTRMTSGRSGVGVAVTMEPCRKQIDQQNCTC

As for `Cc1ccc([C@H](CC(=O)O)c2ccn3c(C(F)(F)F)nnc3c2C)nc1CN1CC2(COC2)Oc2ncccc2S1(=O)=O` (single isomer, unassigned) [Example 495, (*R)-3-(6-((1′,1′-Dioxidospiro[oxetane-3,4′-pyrido[2,3-b][1,4,5]oxathiazepin]-2′(3′H)-yl)methyl)-5-methylpyridin-2-yl)-3-(8-methyl-3-(trifluoromethyl)-[1,2,4]triazolo[4,3-a]pyridin-7-yl)propanoic Acid], the Kd in assay [1] is under 0.001 µM. The EC50 in assay [2] was 2.86 µM.

As to `Cc1ccc([C@@H](CC(=O)O)c2ccn3c(C(F)(F)F)nnc3c2C)nc1CN1C[C@@H]2CCCCN2c2ncc(F)cc2S1(=O)=O` (single isomer, unassigned) [Example 497, (*S)-3-(6-(((*S)-3-Fluoro-5,5-dioxido-7,7a,8,9,10,11-hexahydro-6H-dipyrido[2,1-d:2′,3′-f][1,2,5]thiadiazepin-6-yl)methyl)-5-methylpyridin-2-yl)-3-(8-methyl-3-(trifluoromethyl)-[1,2,4]triazolo[4,3-a]pyridin-7-yl)propanoic Acid], in assay [1], the Kd is under 0.001 µM. In assay [2], this compound had an EC50 of 0.00447 µM.

As to `Cc1ccc([C@H](CC(=O)O)c2ccn3c(C(F)(F)F)nnc3c2C)nc1CN1C[C@@H]2CCCCN2c2ncc(F)cc2S1(=O)=O` (single isomer, unassigned) [Example 498, (*R)-3-(6-(((*S)-3-Fluoro-5,5-dioxido-7,7a,8,9,10,11-hexahydro-6H-dipyrido[2,1-d:2′,3′-f][1,2,5]thiadiazepin-6-yl)methyl)-5-methylpyridin-2-yl)-3-(8-methyl-3-(trifluoromethyl)-[1,2,4]triazolo[4,3-a]pyridin-7-yl)propanoic Acid], in assay [1], the Kd is under 0.001 µM. The 50% effective concentration (EC50) in assay [2] is 0.0147 µM.

Consider `Cc1ccc([C@@H](CC(=O)O)c2ccn3c(C(F)(F)F)nnc3c2C)nc1CN1CC2(CC2)Oc2ncc(F)cc2S1(=O)=O` (single isomer, unassigned) [Example 509, (*S)-3-(6-((8′-Fluoro-1′,1′-dioxidospiro[cyclopropane-1,4′-pyrido[2,3-b][1,4,5]oxathiazepin]-2′(3′H)-yl)methyl)-5-methylpyridin-2-yl)-3-(8-methyl-3-(trifluoromethyl)-[1,2,4]triazolo[4,3-a]pyridin-7-yl)propanoic Acid], for which the Kd in assay [1] was under 0.001 µM. Besides, a half-maximal response in assay [2] (EC50) required 0.0704 µM.

Take `Cc1ccc([C@H](CC(=O)O)c2ccn3c(C(F)(F)F)nnc3c2C)nc1CN1CC2(CC2)Oc2ncc(F)cc2S1(=O)=O` (single isomer, unassigned) [Example 510, (*R)-3-(6-((8′-Fluoro-1′,1′-dioxidospiro[cyclopropane-1,4′-pyrido[2,3-b][1,4,5]oxathiazepin]-2′(3′H)-yl)methyl)-5-methylpyridin-2-yl)-3-(8-methyl-3-(trifluoromethyl)-[1,2,4]triazolo[4,3-a]pyridin-7-yl)propanoic Acid]: the Kd in assay [1] is under 0.001 µM. In assay [2], this compound gave an EC50 of 0.314 µM.

With `CCc1c([C@@H](CC(=O)O)c2ccc(C)c(CN3C[C@H]4CCCCN4c4ncc(C)cc4S3(=O)=O)c2)ccn2c(C(F)(F)F)nnc12` (single isomer, unassigned) [Example 516, (*S)-3-(8-Ethyl-3-(trifluoromethyl)-[1,2,4]triazolo[4,3-a]pyridin-7-yl)-3-(4-methyl-3-(((*R)-3-methyl-5,5-dioxido-7,7a,8,9,10,11-hexahydro-6H-dipyrido[2,1-d:2′,3′-f][1,2,5]thiadiazepin-6-yl)methyl)phenyl)propanoic Acid], the Kd in assay [1] was under 0.001 µM. In addition, in assay [2], the half-maximal effective concentration (EC50) came out at 0.0111 µM.

Take `Cc1ccc([C@@H](CC(=O)O)c2ccn3c(C(F)(F)F)nnc3c2C)nc1CN1C[C@@H]2CCCCN2c2ncc(Cl)cc2S1(=O)=O` (single isomer, unassigned) [Example 519, (*S)-3-(6-(((*S)-3-Chloro-5,5-dioxido-7,7a,8,9,10,11-hexahydro-6H-dipyrido[2,1-d:2′,3′-f][1,2,5]thiadiazepin-6-yl)methyl)-5-methylpyridin-2-yl)-3-(8-methyl-3-(trifluoromethyl)-[1,2,4]triazolo[4,3-a]pyridin-7-yl)propanoic Acid]: the equilibrium dissociation constant (Kd) in assay [1] was under 0.001 µM. Moreover, in assay [2], the concentration giving a half-maximal response (EC50) came out at 0.016 µM.

As to `Cc1ccc([C@@H](CC(=O)O)c2ccn3c(C(F)(F)F)nnc3c2C)nc1CN1C[C@H]2CCCCN2c2ncc(Cl)cc2S1(=O)=O` (single isomer, unassigned) [Example 520, (*S)-3-(6-(((*R)-3-Chloro-5,5-dioxido-7,7a,8,9,10,11-hexahydro-6H-dipyrido[2,1-d:2′,3′-f][1,2,5]thiadiazepin-6-yl)methyl)-5-methylpyridin-2-yl)-3-(8-methyl-3-(trifluoromethyl)-[1,2,4]triazolo[4,3-a]pyridin-7-yl)propanoic Acid], the Kd in assay [1] is under 0.001 µM. Further, the concentration giving a half-maximal response (EC50) in assay [2] amounted to 0.0156 µM.

For `Cc1ccc([C@H](CC(=O)O)c2ccn3c(C(F)(F)F)nnc3c2C)nc1CN1C[C@@H]2CCCCN2c2ncc(Cl)cc2S1(=O)=O` (single isomer, unassigned) [Example 521, (*R)-3-(6-(((*S)-3-Chloro-5,5-dioxido-7,7a,8,9,10,11-hexahydro-6H-dipyrido[2,1-d:2′,3′-f][1,2,5]thiadiazepin-6-yl)methyl)-5-methylpyridin-2-yl)-3-(8-methyl-3-(trifluoromethyl)-[1,2,4]triazolo[4,3-a]pyridin-7-yl)propanoic Acid], the Kd in assay [1] is under 0.001 µM. Further, a half-maximal effect in assay [2] (EC50) was put at 0.00197 µM.

Take `Cc1ccc([C@@H](CC(=O)O)c2ccn3c(C(F)F)nnc3c2C)cc1CN1CC2(CCOCC2)Oc2ccc(F)cc2S1(=O)=O` (single isomer, unassigned) [Example 525, (*R)-3-(3-(Difluoromethyl)-8-methyl-[1,2,4]triazolo[4,3-a]pyridin-7-yl)-3-(3-((8-fluoro-1,1-dioxido-2′,3′,5′,6′-tetrahydrospiro[benzo[b][1,4,5]oxathiazepine-4,4′-pyran]-2(3H)-yl)methyl)-4-methylphenyl)propanoic Acid]: in assay [1], the Kd was under 0.001 µM. The compound also had an EC50 in assay [2] of 0.0388 µM.

As for `Cc1ccc([C@H](CC(=O)O)c2ccn3c(C(F)F)nnc3c2C)cc1CN1CC2(CC2)Oc2ncc(F)cc2S1(=O)=O` (single isomer, unassigned) [Example 527, (*S)-3-(3-(Difluoromethyl)-8-methyl-[1,2,4]triazolo[4,3-a]pyridin-7-yl)-3-(3-((8′-fluoro-1′,1′-dioxidospiro[cyclopropane-1,4′-pyrido[2,3-b][1,4,5]oxathiazepin]-2′(3′H)-yl)methyl)-4-methylphenyl)propanoic Acid], the Kd in assay [1] was under 0.001 µM. In assay [2], this compound registered a concentration giving a half-maximal response (EC50) of 0.0222 µM.

With `Cc1ccc([C@@H](CC(=O)O)c2ccn3c(C(F)F)nnc3c2C)cc1CN1CC2(CC2)Oc2ncc(F)cc2S1(=O)=O` (single isomer, unassigned) [Example 528, (*R)-3-(3-(Difluoromethyl)-8-methyl-[1,2,4]triazolo[4,3-a]pyridin-7-yl)-3-(3-((8′-fluoro-1′,1′-dioxidospiro[cyclopropane-1,4′-pyrido[2,3-b][1,4,5]oxathiazepin]-2′(3′H)-yl)methyl)-4-methylphenyl)propanoic Acid], in assay [1], the Kd was under 0.001 µM. The compound also gave an EC50 in assay [2] of 0.236 µM.

For the compound `Cc1ccc([C@@H](CC(=O)O)c2ccn3c(C(F)F)nnc3c2C)cc1CN1CC2(CC2)Oc2ncc(Cl)cc2S1(=O)=O` (single isomer, unassigned) [Example 531, (*R)-3-(3-((8′-Chloro-1′,1′-dioxidospiro[cyclopropane-1,4′-pyrido[2,3-b][1,4,5]oxathiazepin]-2′(3′H)-yl)methyl)-4-methylphenyl)-3-(3-(difluoromethyl)-8-methyl-[1,2,4]triazolo[4,3-a]pyridin-7-yl)propanoic Acid], the Kd in assay [1] is under 0.001 µM. Moreover, it took 0.113 µM to reach a half-maximal effect in assay [2] (EC50).

On to `Cc1ccc([C@H](CC(=O)O)c2ccn3c(C(F)F)nnc3c2C)cc1CN1CC2(CCOCC2)Oc2ncc(F)cc2S1(=O)=O` (single isomer, unassigned) [Example 533, (*S)-3-(3-(Difluoromethyl)-8-methyl-[1,2,4]triazolo[4,3-a]pyridin-7-yl)-3-(3-((8′-fluoro-1′,1′-dioxido-2,3,5,6-tetrahydrospiro[pyran-4,4′-pyrido[2,3-b][1,4,5]oxathiazepin]-2′(3′H)-yl)methyl)-4-methylphenyl)propanoic Acid], for which the Kd in assay [1] was under 0.001 µM. Moreover, the concentration giving a half-maximal response (EC50) in assay [2] was 0.0313 µM.

As for `Cc1ccc([C@@H](CC(=O)O)c2ccn3c(C(F)F)nnc3c2C)cc1CN1CC2(CCOCC2)Oc2ncc(F)cc2S1(=O)=O` (single isomer, unassigned) [Example 534, (*R)-3-(3-(Difluoromethyl)-8-methyl-[1,2,4]triazolo[4,3-a]pyridin-7-yl)-3-(3-((8′-fluoro-1′,1′-dioxido-2,3,5,6-tetrahydrospiro[pyran-4,4′-pyrido[2,3-b][1,4,5]oxathiazepin]-2′(3′H)-yl)methyl)-4-methylphenyl)propanoic Acid], the Kd in assay [1] is under 0.001 µM. Also, the EC50 in assay [2] is 0.0992 µM.

For `Cc1cnc2c(c1)S(=O)(=O)N(Cc1cc([C@H](CC(=O)O)c3ccn4c(C(F)F)nnc4c3C)ccc1C)CC1(CC1)O2` (single isomer, unassigned) [Example 536, (*S)-3-(3-(Difluoromethyl)-8-methyl-[1,2,4]triazolo[4,3-a]pyridin-7-yl)-3-(4-methyl-3-((8′-methyl-1′,1′-dioxidospiro[cyclopropane-1,4′-pyrido[2,3-b][1,4,5]oxathiazepin]-2′(3′H)-yl)methyl)phenyl)propanoic Acid], the Kd in assay [1] was under 0.001 µM. This compound gave a 50% effective concentration (EC50) in assay [2] of 0.0597 µM.

On to `Cc1cnc2c(c1)S(=O)(=O)N(Cc1cc([C@@H](CC(=O)O)c3ccn4c(C(F)F)nnc4c3C)ccc1C)CC1(CC1)O2` (single isomer, unassigned) [Example 537, (*R)-3-(3-(Difluoromethyl)-8-methyl-[1,2,4]triazolo[4,3-a]pyridin-7-yl)-3-(4-methyl-3-((8′-methyl-1′,1′-dioxidospiro[cyclopropane-1,4′-pyrido[2,3-b][1,4,5]oxathiazepin]-2′(3′H)-yl)methyl)phenyl)propanoic Acid], for which, in assay [1], the Kd is under 0.001 µM. In addition, the half-maximal effective concentration (EC50) in assay [2] was determined as 0.464 µM.
